Assay results taken from patent US9550772B2, “Azaindole derivatives as multi kinase inhibitors” (ORIBASE PHARMA, priority 2012, dated 2017).
Read-outs that look alike come from different tables or passages of the source.

Key:
[1] = test system: A549 cell line; assay: In vitro cell proliferation assay (MTT); type: cell-based; conditions: Homo sapiens, A549, 72 h, EC50 ≧ 1 μM, read-out: EC50, anti-proliferative activity
Method in brief: (§1)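 Duplicate 72 hr treatments spanning 10 nM–3 μM compound preceded MTT measurement of growth. Sigmoidal fitting yielded EC50, with normalization against DMSO controls set at 0% and 1% SDS controls set at 100%.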

[2] = test system: HT29 cell line; assay: In vitro cell proliferation assay (MTT); type: cell-based; conditions: Homo sapiens, HT-29, HT29, 72 hr, EC50 ≧ 1 μM, read-out: EC50, anti-proliferative activity
Method in brief: as §1

[3] = test system: HUVEC cells; assay: In vitro cell proliferation assay (MTT); type: cell-based; conditions: Homo sapiens, 72 hr, read-out: EC50, anti-proliferative activity
Method in brief: as §1

[4] = molecular target: T1, BRAF (Homo sapiens, UniProt P15056); assay: In vitro kinase assay (Z'-LYTE, Invitrogen); type: biochemical; conditions: compound at 100 nM, ATP Km apparent, read-out: % of inhibition of the kinase compared to the control
T1 construct: purchased Invitrogen
Method in brief: (§2)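 Compounds were tested at 100 nM in 1% DMSO final against each kinase with its peptide substrate, ATP at apparent Km, in 50 mM HEPES pH 7.5 with 10 mM MgCl2, 1 mM EGTA, 0.01% BRIJ-35. Phosphorylation was quantified by Z′-LYTE coupled protease/FRET emission ratio.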

[5] = molecular target: T2, EGFR (ErbB1) (Homo sapiens, UniProt P00533); assay: In vitro kinase assay (Z'-LYTE, Invitrogen); type: biochemical; conditions: compound at 100 nM, ATP Km apparent, read-out: % of inhibition of the kinase compared to the control
T2 construct: purchased Invitrogen
Method in brief: as §2

[6] = molecular target: T3, EGFR (ErbB1) T790M L858R (Homo sapiens, UniProt P00533, L858R/T790M); assay: In vitro kinase assay (Z'-LYTE, Invitrogen); type: biochemical; conditions: compound at 100 nM, ATP Km apparent, read-out: % of inhibition of the kinase compared to the control
T3 construct: purchased Invitrogen
Method in brief: as §2

[7] = molecular target: T4, FGFR2 (Homo sapiens, UniProt P21802); assay: In vitro kinase assay (Z'-LYTE, Invitrogen); type: biochemical; conditions: compound at 100 nM, ATP Km apparent, read-out: % of inhibition of the kinase compared to the control
T4 construct: purchased Invitrogen
Method in brief: as §2

[8] = molecular target: T5, KDR (VEGFR2) (Homo sapiens, UniProt P35968); assay: In vitro kinase assay (Z'-LYTE, Invitrogen); type: biochemical; conditions: compound at 100 nM, ATP Km apparent, read-out: % of inhibition of the kinase compared to the control
T5 construct: purchased Invitrogen
Method in brief: as §2

[9] = molecular target: T6, PDGFRA (PDGFR alpha) (Homo sapiens, UniProt P16234); assay: In vitro kinase assay (Z'-LYTE, Invitrogen); type: biochemical; conditions: compound at 100 nM, ATP Km apparent, read-out: % of inhibition of the kinase compared to the control
T6 construct: purchased Invitrogen
Method in brief: as §2

[10] = molecular target: T7, SRC (Homo sapiens, UniProt P12931); assay: In vitro kinase assay (Z'-LYTE, Invitrogen); type: biochemical; conditions: compound at 100 nM, ATP Km apparent, read-out: % of inhibition of the kinase compared to the control
T7 construct: purchased Invitrogen
Method in brief: as §2

[11] = test system: H1975 cell line; assay: In vitro cell proliferation assay (MTT); type: cell-based; conditions: Homo sapiens, NCI-H1975, H1975, 72 hr, EC50 ≧ 1 μM, read-out: EC50, anti-proliferative activity
Method in brief: as §1

[12] = test system: HepG2 cell line; assay: In vitro cell proliferation assay (MTT); type: cell-based; conditions: Homo sapiens, HepG2, 72 hr, EC50 ≧ 1 μM, read-out: EC50, anti-proliferative activity
Method in brief: as §1

[13] = test system: HuCCT1 cell line; assay: In vitro cell proliferation assay (MTT); type: cell-based; conditions: Homo sapiens, HuCCT-1, HuCCT1, 72 hr, read-out: EC50, anti-proliferative activity
Method in brief: as §1

[14] = test system: HuH6 Clone 5 cell line; assay: In vitro cell proliferation assay (MTT); type: cell-based; conditions: HUH-6-clone5, HuH6 Clone 5, 72 hr, EC50 ≧ 1 μM, read-out: EC50, anti-proliferative activity
Method in brief: as §1

[15] = test system: HuH7 cell line; assay: In vitro cell proliferation assay (MTT); type: cell-based; conditions: Homo sapiens, Huh-7, HuH7, 72 hr, read-out: EC50, anti-proliferative activity
Method in brief: as §1

[16] = test system: MDA-MB-231 cell line; assay: In vitro cell proliferation assay (MTT); type: cell-based; conditions: Homo sapiens, MDA-MB-231, 72 hr, EC50 ≧ 1 μM, read-out: EC50, anti-proliferative activity
Method in brief: as §1

T6 sequence (P16234 24-1089): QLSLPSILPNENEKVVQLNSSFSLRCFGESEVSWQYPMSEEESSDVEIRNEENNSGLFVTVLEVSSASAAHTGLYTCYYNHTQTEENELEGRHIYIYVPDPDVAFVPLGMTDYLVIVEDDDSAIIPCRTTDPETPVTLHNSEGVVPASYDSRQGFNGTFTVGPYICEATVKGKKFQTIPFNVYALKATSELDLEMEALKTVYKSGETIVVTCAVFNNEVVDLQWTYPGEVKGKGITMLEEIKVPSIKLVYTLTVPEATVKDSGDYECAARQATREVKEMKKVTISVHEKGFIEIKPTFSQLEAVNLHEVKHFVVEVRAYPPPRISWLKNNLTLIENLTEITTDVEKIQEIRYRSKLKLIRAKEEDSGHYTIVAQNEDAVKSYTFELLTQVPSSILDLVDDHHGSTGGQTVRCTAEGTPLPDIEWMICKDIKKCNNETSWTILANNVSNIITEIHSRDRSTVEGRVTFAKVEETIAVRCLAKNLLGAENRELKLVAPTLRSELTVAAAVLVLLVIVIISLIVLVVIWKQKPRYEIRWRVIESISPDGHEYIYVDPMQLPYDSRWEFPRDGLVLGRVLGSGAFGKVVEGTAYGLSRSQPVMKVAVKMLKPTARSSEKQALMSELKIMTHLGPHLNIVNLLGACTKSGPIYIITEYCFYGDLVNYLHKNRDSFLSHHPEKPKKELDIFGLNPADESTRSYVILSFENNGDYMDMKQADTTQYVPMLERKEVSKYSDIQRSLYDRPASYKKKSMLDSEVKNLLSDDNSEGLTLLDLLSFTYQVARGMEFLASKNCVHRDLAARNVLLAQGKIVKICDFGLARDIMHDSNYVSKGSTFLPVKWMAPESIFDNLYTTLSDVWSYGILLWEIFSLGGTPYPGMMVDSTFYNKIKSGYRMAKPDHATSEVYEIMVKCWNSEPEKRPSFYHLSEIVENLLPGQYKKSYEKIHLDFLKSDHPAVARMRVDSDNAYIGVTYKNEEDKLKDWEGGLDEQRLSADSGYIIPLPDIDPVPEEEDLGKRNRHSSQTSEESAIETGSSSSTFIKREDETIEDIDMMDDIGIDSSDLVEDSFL
T4 sequence (P21802 22-821): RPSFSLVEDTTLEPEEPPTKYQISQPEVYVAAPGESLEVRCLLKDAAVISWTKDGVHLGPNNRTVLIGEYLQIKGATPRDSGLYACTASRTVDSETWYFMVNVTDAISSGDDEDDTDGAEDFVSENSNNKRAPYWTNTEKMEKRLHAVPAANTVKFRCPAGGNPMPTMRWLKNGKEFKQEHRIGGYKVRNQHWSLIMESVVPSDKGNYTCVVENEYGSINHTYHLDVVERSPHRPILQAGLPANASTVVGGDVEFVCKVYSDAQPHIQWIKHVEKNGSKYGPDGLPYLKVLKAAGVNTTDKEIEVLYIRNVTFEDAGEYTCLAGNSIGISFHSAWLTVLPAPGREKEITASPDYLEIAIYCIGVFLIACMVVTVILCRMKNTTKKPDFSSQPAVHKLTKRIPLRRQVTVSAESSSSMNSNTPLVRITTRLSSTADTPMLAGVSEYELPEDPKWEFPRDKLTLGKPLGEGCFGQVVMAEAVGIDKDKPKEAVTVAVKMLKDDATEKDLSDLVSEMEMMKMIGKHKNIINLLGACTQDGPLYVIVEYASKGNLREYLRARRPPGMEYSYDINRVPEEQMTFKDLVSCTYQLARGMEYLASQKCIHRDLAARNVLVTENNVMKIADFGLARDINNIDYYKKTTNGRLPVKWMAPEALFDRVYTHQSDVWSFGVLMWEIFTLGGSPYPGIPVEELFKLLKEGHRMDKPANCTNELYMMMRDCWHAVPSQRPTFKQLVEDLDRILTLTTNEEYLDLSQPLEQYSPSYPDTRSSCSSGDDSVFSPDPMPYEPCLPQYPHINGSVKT
T5 sequence (P35968 20-1356): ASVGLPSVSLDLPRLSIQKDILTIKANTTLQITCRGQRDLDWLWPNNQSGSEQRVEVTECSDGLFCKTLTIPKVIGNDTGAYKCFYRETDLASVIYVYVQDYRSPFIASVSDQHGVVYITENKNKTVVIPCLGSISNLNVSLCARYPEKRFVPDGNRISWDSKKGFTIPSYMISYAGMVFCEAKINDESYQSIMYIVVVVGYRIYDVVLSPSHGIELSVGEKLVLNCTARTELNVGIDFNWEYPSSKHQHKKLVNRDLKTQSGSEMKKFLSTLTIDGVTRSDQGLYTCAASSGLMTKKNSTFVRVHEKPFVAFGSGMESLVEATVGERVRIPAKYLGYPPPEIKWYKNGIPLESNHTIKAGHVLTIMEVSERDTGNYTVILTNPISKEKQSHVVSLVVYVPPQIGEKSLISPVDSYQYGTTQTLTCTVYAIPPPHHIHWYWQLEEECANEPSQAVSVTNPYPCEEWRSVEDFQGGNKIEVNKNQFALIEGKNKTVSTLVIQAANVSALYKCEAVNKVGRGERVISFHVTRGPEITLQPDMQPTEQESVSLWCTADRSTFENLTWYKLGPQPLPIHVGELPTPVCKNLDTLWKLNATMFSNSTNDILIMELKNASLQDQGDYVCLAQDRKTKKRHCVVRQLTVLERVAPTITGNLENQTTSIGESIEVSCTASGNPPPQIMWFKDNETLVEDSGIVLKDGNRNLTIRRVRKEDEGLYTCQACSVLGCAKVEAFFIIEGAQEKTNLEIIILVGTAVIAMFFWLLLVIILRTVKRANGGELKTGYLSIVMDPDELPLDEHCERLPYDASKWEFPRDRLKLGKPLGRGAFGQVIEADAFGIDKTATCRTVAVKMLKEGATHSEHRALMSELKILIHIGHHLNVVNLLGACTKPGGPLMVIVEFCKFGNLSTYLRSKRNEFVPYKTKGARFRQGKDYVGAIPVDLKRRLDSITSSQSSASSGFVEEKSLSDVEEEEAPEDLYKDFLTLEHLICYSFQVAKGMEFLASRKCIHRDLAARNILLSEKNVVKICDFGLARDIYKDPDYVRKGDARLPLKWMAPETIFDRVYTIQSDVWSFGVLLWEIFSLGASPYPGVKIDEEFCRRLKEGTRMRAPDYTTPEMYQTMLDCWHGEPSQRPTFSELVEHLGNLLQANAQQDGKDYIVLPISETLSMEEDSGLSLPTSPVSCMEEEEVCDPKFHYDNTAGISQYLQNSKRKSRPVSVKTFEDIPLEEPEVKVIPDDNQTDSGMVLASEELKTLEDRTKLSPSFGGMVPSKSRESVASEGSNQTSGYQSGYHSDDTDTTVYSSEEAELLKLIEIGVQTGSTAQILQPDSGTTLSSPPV
T2 sequence (P00533 25-1210): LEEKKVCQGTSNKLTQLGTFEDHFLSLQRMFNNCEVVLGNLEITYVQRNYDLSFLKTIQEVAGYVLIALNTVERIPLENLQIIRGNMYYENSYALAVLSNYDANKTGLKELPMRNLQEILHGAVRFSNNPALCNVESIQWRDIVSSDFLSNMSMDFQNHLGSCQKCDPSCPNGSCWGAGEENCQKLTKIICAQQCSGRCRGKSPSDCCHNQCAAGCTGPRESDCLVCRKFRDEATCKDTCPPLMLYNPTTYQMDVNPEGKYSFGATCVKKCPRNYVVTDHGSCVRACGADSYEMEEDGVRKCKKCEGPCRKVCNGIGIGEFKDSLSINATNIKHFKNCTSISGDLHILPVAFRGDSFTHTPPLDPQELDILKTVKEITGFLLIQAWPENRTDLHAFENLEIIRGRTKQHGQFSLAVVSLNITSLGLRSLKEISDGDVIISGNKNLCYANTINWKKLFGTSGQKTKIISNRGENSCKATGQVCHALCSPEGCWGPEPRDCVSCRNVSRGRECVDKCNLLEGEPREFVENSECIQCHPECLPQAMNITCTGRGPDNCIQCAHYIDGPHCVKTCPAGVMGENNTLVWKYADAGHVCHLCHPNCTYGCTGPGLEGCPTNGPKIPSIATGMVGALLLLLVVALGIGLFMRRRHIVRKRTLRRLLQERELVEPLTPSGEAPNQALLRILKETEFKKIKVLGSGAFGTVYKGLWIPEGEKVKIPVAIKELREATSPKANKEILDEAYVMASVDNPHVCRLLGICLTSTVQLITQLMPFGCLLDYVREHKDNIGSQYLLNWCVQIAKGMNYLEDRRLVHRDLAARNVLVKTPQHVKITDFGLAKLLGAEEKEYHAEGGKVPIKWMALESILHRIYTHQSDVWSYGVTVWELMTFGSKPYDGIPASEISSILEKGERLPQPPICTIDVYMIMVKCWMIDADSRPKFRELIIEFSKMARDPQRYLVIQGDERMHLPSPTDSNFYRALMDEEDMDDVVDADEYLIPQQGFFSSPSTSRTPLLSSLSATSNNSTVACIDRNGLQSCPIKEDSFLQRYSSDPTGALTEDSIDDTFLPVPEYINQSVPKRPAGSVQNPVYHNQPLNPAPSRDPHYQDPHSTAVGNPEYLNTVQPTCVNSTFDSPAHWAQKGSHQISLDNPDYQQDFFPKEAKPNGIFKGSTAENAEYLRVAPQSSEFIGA
T7 sequence (P12931 whole entry): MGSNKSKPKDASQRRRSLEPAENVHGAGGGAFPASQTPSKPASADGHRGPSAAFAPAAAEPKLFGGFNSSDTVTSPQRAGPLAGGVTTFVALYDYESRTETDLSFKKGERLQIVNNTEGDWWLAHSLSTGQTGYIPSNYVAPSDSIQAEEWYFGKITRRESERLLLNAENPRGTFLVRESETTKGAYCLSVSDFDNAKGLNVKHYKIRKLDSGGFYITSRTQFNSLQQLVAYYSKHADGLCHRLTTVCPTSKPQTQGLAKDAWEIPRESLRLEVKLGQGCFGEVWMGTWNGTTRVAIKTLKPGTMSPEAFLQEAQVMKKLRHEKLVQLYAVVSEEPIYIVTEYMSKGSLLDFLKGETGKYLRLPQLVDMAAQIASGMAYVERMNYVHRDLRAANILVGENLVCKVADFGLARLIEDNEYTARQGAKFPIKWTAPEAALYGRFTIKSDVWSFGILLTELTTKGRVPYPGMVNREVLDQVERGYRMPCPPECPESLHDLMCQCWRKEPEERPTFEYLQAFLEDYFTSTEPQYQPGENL

Row | SMILES | EC50 [1] | EC50 [2] | EC50 ([3]; EC50 ≧ 1 μM) | inhibition at 0.1 µM [4] | inhibition at 0.1 µM [5] | inhibition at 0.1 µM [6] | inhibition at 0.1 µM [7] | inhibition at 0.1 µM [8] | inhibition at 0.1 µM [9] | inhibition at 0.1 µM [10] | EC50 [11] | EC50 [12] | EC50 ([13]; EC50 ≧ 1 μM) | EC50 ([3]; 100 nM < EC50 < 1 μM) | EC50 [14] | EC50 ([15]; 100 nM < EC50 < 1 μM) | EC50 ([15]; EC50 ≧ 1 μM) | EC50 [16] | EC50 ([13]; 100 nM < EC50 < 1 μM)
1 | C#Cc1cccc(Nc2ncnc3cc(OCCOC)c(OCCOC)cc23)c1 [Erlotinib, reference compound] | ≥ 1000 nM | ≥ 1000 nM | ≥ 1000 nM |  |  |  |  |  |  |  |  |  |  |  |  |  |  |  | 
2 | COC(=O)c1cc2cc(CNC(=O)c3cc(NC(=O)c4ccc(CN5CCC(N(C)C)C5)c(C(F)(F)F)c4)ccc3C)cnc2[nH]1 (stereo not shown) [OR0726, 5-({5-[4-(3-Dimethylamino-pyrrolidin-1-ylmethyl)-3-trifluoromethyl-benzoylamino]-2-methyl-benzoylamino}-methyl)-1H-pyrrolo[2,3-b]pyridine-2-carboxylic acid methyl ester] |  |  |  | < 50% | < 50% | < 50% | < 50% | < 50% | < 50% | < 50% |  |  |  |  |  |  |  |  | 
3 | COC(=O)c1cc2cc(CNC(=O)c3cc(NC(=O)c4ccc(CN5CCN(C)CC5)c(C(F)(F)F)c4)ccc3C)cnc2[nH]1 [OR0728, 5-({2-Methyl-5-[4-(4-methyl-piperazin-1-ylmethyl)-3-trifluoromethyl-benzoylamino]-benzoylamino}-methyl)-1H-pyrrolo[2,3-b]pyridine-2-carboxylic acid methyl ester] |  |  |  | < 50% | < 50% | < 50% | < 50% | < 50% | ≥ 50% | < 50% |  |  |  |  |  |  |  |  | 
4 | COC(=O)c1cc2cc(CNC(=O)c3cc(NC(=O)c4ccc(CN5CCN(C)CC5)cc4)ccc3C)cnc2[nH]1 [OR0730, 5-({2-Methyl-5-[4-(4-methyl-piperazin-1-ylmethyl)-benzoylamino]-benzoylamino}-methyl)-1H-pyrrolo[2,3-b]pyridine-2-carboxylic acid methyl ester] |  |  |  | < 50% | < 50% | < 50% | < 50% | < 50% | < 50% | < 50% |  |  |  |  |  |  |  |  | 
5 | COC(=O)c1cc2cc(CNc3cc(NC(=O)c4ccc(C)cc4)ccc3C)cnc2[nH]1 [OR0738, 5-{[2-Methyl-5-(4-methyl-benzoylamino)-phenylamino]-methyl}-1H-pyrrolo[2,3-b]pyridine-2-carboxylic acid methyl ester] | ≥ 1000 nM | ≥ 1000 nM | ≥ 1000 nM | < 50% | < 50% | < 50% | < 50% | < 50% | < 50% | < 50% | ≥ 1000 nM | ≥ 1000 nM | ≥ 1000 nM |  |  |  |  |  | 
6 | COC(=O)c1cc2cc(CCc3cc(NC(=O)c4ccc(CN5CCC(N(C)C)C5)c(C(F)(F)F)c4)ccc3C)cnc2[nH]1 (stereo not shown) [OR0775, 5-(2-{5-[4-(3-Dimethylamino-pyrrolidin-1-ylmethyl)-3-trifluoromethyl-benzoylamino]-2-methyl-phenyl}-ethyl)-1H-pyrrolo[2,3-b]pyridine-2-carboxylic acid methyl ester] |  |  |  | ≥ 50% | ≥ 50% | ≥ 50% | ≥ 50% | ≥ 50% | ≥ 50% | ≥ 50% |  | ≥ 1000 nM | ≥ 1000 nM | 100 to 1000 nM | ≥ 1000 nM | 100 to 1000 nM |  |  | 
7 | COC(=O)c1cc2cc(C=Cc3cc(NC(=O)c4ccc(CN5CCC(N(C)C)C5)c(C(F)(F)F)c4)ccc3C)cnc2[nH]1 (stereo not shown) [OR0778, 5-(2-{5-[4-(3-Dimethylamino-pyrrolidin-1-ylmethyl)-3-trifluoromethyl-benzoylamino]-2-methyl-phenyl}-vinyl)-1H-pyrrolo[2,3-b]pyridine-2-carboxylic acid methyl ester] |  |  | ≥ 1000 nM | < 50% | ≥ 50% |  | < 50% | ≥ 50% | ≥ 50% | ≥ 50% |  | ≥ 1000 nM | ≥ 1000 nM |  | ≥ 1000 nM |  | ≥ 1000 nM | ≥ 1000 nM | 
8 | CC(=O)c1cc2cc(CCc3cc(NC(=O)c4ccc(CN5CCN(C)CC5)cc4)ccc3C)cnc2[nH]1 [OR0799, N-{3-[2-(2-Acetyl-1H-pyrrolo[2,3-b]pyridin-5-yl)-ethyl]-4-methyl-phenyl}-4-(4-methyl-piperazin-1-ylmethyl)-benzamide] |  |  |  | ≥ 50% | ≥ 50% |  | < 50% | ≥ 50% | ≥ 50% | ≥ 50% |  | ≥ 1000 nM |  | 100 to 1000 nM | ≥ 1000 nM | 100 to 1000 nM |  |  | 100 to 1000 nM
9 | CC(=O)c1cc2cc(CCc3cc(NC(=O)c4cncc(C(F)(F)F)c4)ccc3C)cnc2[nH]1 [OR0800, N-{3-[2-(2-Acetyl-1H-pyrrolo[2,3-b]pyridin-5-yl)-ethyl]-4-methyl-phenyl}-5-trifluoromethyl-nicotinamide] |  |  |  | ≥ 50% | < 50% |  | < 50% | ≥ 50% | ≥ 50% | ≥ 50% |  | ≥ 1000 nM | ≥ 1000 nM | 100 to 1000 nM | ≥ 1000 nM |  | ≥ 1000 nM |  | 
10 | COC(=O)c1cc2cc(CCc3cc(NC(=O)c4ccc(CN5CCN(C)CC5)cc4)ccc3C)cnc2[nH]1 [OR0834, 5-(2-{2-Methyl-5-[4-(4-methyl-piperazin-1-ylmethyl)-benzoylamino]-phenyl}-ethyl)-1H-pyrrolo[2,3-b]pyridine-2-carboxylic acid methyl ester] |  |  | ≥ 1000 nM | < 50% | ≥ 50% |  | < 50% | ≥ 50% | ≥ 50% | ≥ 50% |  | ≥ 1000 nM |  |  |  |  | ≥ 1000 nM |  | 
11 | CNC(=O)c1cc(Oc2ccc(NC(=O)Nc3ccc(Cl)c(C(F)(F)F)c3)cc2)ccn1 [Sorafenib, reference compound] |  |  |  |  |  |  |  |  |  |  |  | 1000 to 3000 nM | 1000 to 3000 nM | 100 to 1000 nM | 1000 to 3000 nM |  | 1000 to 3000 nM |  | 
